Data published in patent publication US9060993B2, “Compositions and methods for treating cancer” (The Trustees of the University of Pennsylvania, priority 2003, dated 2015).

Legend:
ATP citrate lyase = molecular target: T1, ATP citrate lyase (Mus musculus, UniProt Q91V92); experiment: ATP citrate lyase activity in cellular extracts (malate dehydrogenase coupled, NADH consumption at 340 nm); format: biochemical; details: mitogen stimulated cell extracts
T1 construct: is added to mitogen stimulated cell extracts with an IC50 of approximately 3 μM; endogenous in cells; host or cells: IL-3-dependent cell line (FL5.12), mitogen-stimulated; cytosolic extract
T1 sequence (Q91V92 1-1091): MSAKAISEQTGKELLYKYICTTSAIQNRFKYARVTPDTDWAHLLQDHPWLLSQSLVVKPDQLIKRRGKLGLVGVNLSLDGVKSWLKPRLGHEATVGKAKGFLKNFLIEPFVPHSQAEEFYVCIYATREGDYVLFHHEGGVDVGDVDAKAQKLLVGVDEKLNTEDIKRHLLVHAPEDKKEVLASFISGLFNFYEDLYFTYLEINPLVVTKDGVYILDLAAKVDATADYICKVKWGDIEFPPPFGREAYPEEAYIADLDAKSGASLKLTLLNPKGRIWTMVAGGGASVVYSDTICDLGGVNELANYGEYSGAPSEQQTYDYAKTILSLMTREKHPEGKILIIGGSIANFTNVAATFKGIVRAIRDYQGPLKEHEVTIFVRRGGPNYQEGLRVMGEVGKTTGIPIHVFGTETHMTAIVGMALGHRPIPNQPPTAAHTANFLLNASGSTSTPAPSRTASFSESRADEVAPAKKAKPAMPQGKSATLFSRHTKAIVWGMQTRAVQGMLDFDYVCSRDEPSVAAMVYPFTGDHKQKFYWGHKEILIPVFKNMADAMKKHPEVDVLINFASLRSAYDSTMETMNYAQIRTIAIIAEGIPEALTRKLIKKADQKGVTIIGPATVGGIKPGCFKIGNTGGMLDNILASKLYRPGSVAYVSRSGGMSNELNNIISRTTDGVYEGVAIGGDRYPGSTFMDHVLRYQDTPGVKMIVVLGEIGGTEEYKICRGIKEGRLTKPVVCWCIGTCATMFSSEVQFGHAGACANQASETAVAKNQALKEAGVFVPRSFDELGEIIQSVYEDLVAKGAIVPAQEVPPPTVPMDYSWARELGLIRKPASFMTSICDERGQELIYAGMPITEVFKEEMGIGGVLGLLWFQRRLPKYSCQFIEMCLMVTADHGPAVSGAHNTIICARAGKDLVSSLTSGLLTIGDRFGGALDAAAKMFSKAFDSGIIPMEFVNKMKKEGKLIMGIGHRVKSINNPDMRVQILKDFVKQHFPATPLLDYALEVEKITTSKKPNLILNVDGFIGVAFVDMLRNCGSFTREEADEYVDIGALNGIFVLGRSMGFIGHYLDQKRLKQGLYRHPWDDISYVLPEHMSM
Procedure: To investigate the potential induction of ATP citrate lyase in response to mitogen stimulation of cell proliferation, an assay was developed to quantitate ATP citrate lyase (ACL) activity in cellular extracts. As a positive control, stable transfectants of a cell line dependent on IL-3 for the induction of cell proliferation was also produced. The cytosolic extracts from the wild type cells and ATP citrate lyase transfected cells were analyzed by determining the level of ATP citrate lyase activity per 10^6 cells as determined by the malate dehydrogenase catalyzed reduction of oxaloacetate by NADH. NADH consumption was measured by monitoring the reaction at 340 nm. Assays were run by providing citrate at 100 μM in the presence of 5 mM ATP and 300 μM of CoA.

FL5.12 cells = experiment: Cell proliferation and survival of IL-3 stimulated FL5.12 cells in culture; format: cell-based
Procedure: As a result, we have investigated the ability of hydroxycitrate to inhibit the proliferative response of FL5.12 cells stimulated by interleukin-3. […] The IC50 of this effect approximates the efficacy of hydroxycitrate in inhibiting ACL-dependent fatty acid synthesis as reported by others (Pearce et al. 1998).
(§1) When 3-carbox-11-(2,4-dichlorophenyl)-3,5dihydroxyundecanoic acid (see FIG. 4 for structures) is added to mitogen stimulated cell extracts with an IC50 of approximately 3 μM and when cells were treated with a γ-lactone derivative that is cell permeant, the cell proliferation was inhibited at approximately a 10 μM concentration and both cell proliferation and cell survival were inhibited at 30 μM concentrations (FIG. 6).

[1] = test system: hematopoietic IL3-dependent cell lines; experiment: In vitro apoptosis assay (Annexin V / propidium iodide flow cytometry); format: cell-based; details: 30 μM; FIG. 9
Procedure: Remove 500 μl of treated or untreated cells (at concentrations of 0.5-1×10^6 cells/ml) to a FACS tube and add 50 μl of 10× Annexin V binding buffer (BD Biosciences Pharmingen, San Diego, Calif.) to each tube. Stain cells with Annexin V-FITC (BD Biosciences Phanningen, San Diego, Calif. ) using 4 μl Annexin V-FITC and propidium iodide (Molecular Probes, Eugene, Oreg.) at a final concentration of 3 μg/ml of cells. The cells are preferably hematopoietic IL3-dependent cell lines such as for example IL3-dependent FL5.12 pro-B cells transfected with different transgenes (Bcl-xL, myrAkt) or vector control plasmids and IL3-dependent cells isolated from the bone marrow of Bax−/−Bak−/− knockout mice. Incubate at 37° for 30 minutes. Perform flow cytometry. Early apoptotic cells are Annexin V positive, propidium iodide negative while late apoptotic cells are both Annexin V and propidium iodide positive.
as §1

[2] = test system: cells transfected with the oncogene Bcl-xL; experiment: Proliferation and cell death of Bcl-xL-transfected cells in presence or absence of the mitogen IL-3; format: cell-based; details: 30 μM, FIG. 11
[3] = test system: Bax/Bak-deficient, IL-3-dependent cell lines; experiment: Mitogen-induced cell growth of Bax/Bak-deficient, IL-3-dependent cell lines; format: cell-based, mice; details: 30 μM, resting cells treated with IL-3; FIG. 14
[4] = test system: mitogen-stimulated cells and proliferating transformed cell cultures; experiment: Cell cycle analysis of mitogen-stimulated cells and proliferating transformed cell cultures; format: cell-based; details: 30 μM; FIG. 8
Procedure: as §1

Compound: O=C(O)CC(O)(CC(O)CCCCCCc1ccc(Cl)cc1Cl)C(=O)O (centres unmarked) [3-carbox-11-(2,4-dichlorophenyl)-3,5dihydroxyundecanoic acid]
- IC50 (ATP citrate lyase): ~3 µM

Compound: O=C(O)CC(O)(C(=O)O)C(O)C(=O)O (centres unmarked) [hydroxycitrate]
- overall cell number and viability of cells in culture (FL5.12 cells; added to IL-3-containing cultures of FL5.12, FIG. 3): progressive decline in the overall cell number and viability

Compound: O=C(O)C[C@@]1(O)C[C@@H](CCCCCCc2ccc(Cl)cc2Cl)OC1=O [γ-lactone derivative]
- annexin-V positivity (induction of apoptosis) [1]: rapid induction of the annexin-V positivity
- concentration at which both cell proliferation and cell survival were inhibited (FL5.12 cells; FIG. 6): 30 µM
- concentration at which cell proliferation was inhibited (FL5.12 cells; cells treated with cell permeant γ-lactone, FIG. 6): ~10 µM
- inhibition of cell proliferation in each independent cell clone (FL5.12 cells; immortalized hematopoietic cells, independent clones, doses between 10 and 30 μM, FIG. 7): approximately 50%
- cell death ([2]; in presence of IL-3): induction of apoptotic cell death
- mitogen-induced cell proliferation ([2]; in presence of IL-3): near complete inhibition
- toxicity in nongrowing cells ([2]; nongrowing cells (IL-3 withdrawal)): relatively nontoxic
- mitogen-induced cell growth [3]: nearly completely inhibited
- cell cycle effect [4]: G1 arrest
